Two compounds from ChEMBL document CHEMBL1629692, “Susceptibility of gram-negative pathogens isolated from patients with complicated intra-abdominal infections in the United States, 2007-2008: results of the Study for Monitoring Antimicrobial Resistance Trends (SMART)” (2010) can be followed below.

Assay type in all cases: functional
For experiment [1], the system named is Klebsiella pneumoniae. In words: Antimicrobial activity against Klebsiella pneumoniae assessed as percent susceptible isolates by agar dilution method in presence of beta-lactamase inhibitor Sulbactam. (In agar dilution, organisms are placed on agar that contains the substance at set levels.)
Experiment [2] has as its system Acinetobacter sp. In words: Antimicrobial activity against Acinetobacter sp. assessed as percent susceptible isolates by agar dilution method in presence of beta-lactamase inhibitor Sulbactam.
Experiment [3] relates to Klebsiella pneumoniae. In words: Antimicrobial activity against extended-spectrum beta-lactamase-positive Klebsiella pneumoniae assessed as percent susceptible isolates by agar dilution method in presence of beta-lactamase inhibitor Sulbactam.
In experiment [4] the test system is Enterobacter cloacae. Kind of experiment: Antimicrobial activity against Enterobacter cloacae obtained from patient with complicated intra-abdominal infection assessed as percent susceptible isolates by agar dilution method in presence of beta-lactamase inhibitor Sulbactam.
For experiment [5], the system named is Citrobacter freundii. In words: Antimicrobial activity against Citrobacter freundii obtained from patient with complicated intra-abdominal infection assessed as percent susceptible isolates by agar dilution method in presence of beta-lactamase inhibitor Sulbactam.
The test system of experiment [6] is Proteus mirabilis. In words: Antimicrobial activity against extended-spectrum beta-lactamase-positive Proteus mirabilis assessed as percent susceptible isolates by agar dilution method in presence of beta-lactamase inhibitor Sulbactam.
Experiment [7] has as its system Escherichia coli. In words: Antimicrobial activity against Escherichia coli obtained from patient with complicated intra-abdominal infection assessed as percent susceptible isolates by agar dilution method in presence of beta-lactamase inhibitor Sulbactam.
Experiment [8] has as its system Pseudomonas fluorescens. In words: Antimicrobial activity against Pseudomonas fluorescens assessed as percent susceptible isolates by agar dilution method in presence of beta-lactamase inhibitor Sulbactam.
In experiment [9] the test system is Pasteurella sp. In words: Antimicrobial activity against Pasteurella sp. assessed as percent susceptible isolates by agar dilution method in presence of beta-lactamase inhibitor Sulbactam.
In experiment [10] the test system is Stenotrophomonas maltophilia. Kind of experiment: Antimicrobial activity against Stenotrophomonas maltophilia assessed as percent susceptible isolates by agar dilution method in presence of beta-lactamase inhibitor Sulbactam.
In experiment [11] the test system is Klebsiella pneumoniae. In words: Antimicrobial activity against extended-spectrum beta-lactamase-negative Klebsiella pneumoniae assessed as percent susceptible isolates by agar dilution method in presence of beta-lactamase inhibitor Sulbactam.
Experiment [12] has as its system Klebsiella aerogenes. In words: Antimicrobial activity against Enterobacter aerogenes obtained from patient with complicated intra-abdominal infection assessed as percent susceptible isolates by agar dilution method in presence of beta-lactamase inhibitor Sulbactam.
In experiment [13] the test system is Escherichia coli. Kind of experiment: Antimicrobial activity against extended-spectrum beta-lactamase-positive Escherichia coli obtained from patient with complicated intra-abdominal infection assessed as percent susceptible isolates by agar dilution method in presence of beta-lactamase inhibitor Sulbactam.
Experiment [14] relates to Klebsiella oxytoca. Kind of experiment: Antimicrobial activity against extended-spectrum beta-lactamase-positive Klebsiella oxytoca assessed as percent susceptible isolates by agar dilution method in presence of beta-lactamase inhibitor Sulbactam.
Experiment [15] relates to Serratia marcescens. Kind of experiment: Antimicrobial activity against Serratia marcescens assessed as percent susceptible isolates by agar dilution method in presence of beta-lactamase inhibitor Sulbactam.
In experiment [16] the test system is Escherichia coli. In words: Antimicrobial activity against extended-Spectrum beta-lactamase-negative Escherichia coli obtained from patient with complicated intra-abdominal infection assessed as percent susceptible isolates by agar dilution method in presence of beta-lactamase inhibitor Sulbactam.
Experiment [17] deals with Proteus mirabilis. In words: Antimicrobial activity against extended-spectrum beta-lactamase-positive Proteus mirabilis assessed as percent susceptible isolates by agar dilution method in presence of beta-lactamase inhibitor Tazobactam.
Experiment [18] relates to Enterobacter cloacae. Kind of experiment: Antimicrobial activity against Enterobacter cloacae obtained from patient with complicated intra-abdominal infection assessed as percent susceptible isolates by agar dilution method in presence of beta-lactamase inhibitor Tazobactam.
The subject of experiment [19] is Pseudomonas aeruginosa. Kind of experiment: Antimicrobial activity against Pseudomonas aeruginosa assessed as percent susceptible isolates by agar dilution method in presence of beta-lactamase inhibitor Tazobactam.
In experiment [20] the test system is Klebsiella pneumoniae. Kind of experiment: Antimicrobial activity against Klebsiella pneumoniae assessed as percent susceptible isolates by agar dilution method in presence of beta-lactamase inhibitor Tazobactam.
Experiment [21] concerns Klebsiella pneumoniae. Kind of experiment: Antimicrobial activity against extended-spectrum beta-lactamase-positive Klebsiella pneumoniae assessed as percent susceptible isolates by agar dilution method in presence of beta-lactamase inhibitor Tazobactam.
In experiment [22] the test system is Pasteurella sp. Kind of experiment: Antimicrobial activity against Pasteurella sp. assessed as percent susceptible isolates by agar dilution method in presence of beta-lactamase inhibitor Tazobactam.
In experiment [23] the test system is Escherichia coli. Kind of experiment: Antimicrobial activity against extended-spectrum beta-lactamase-positive Escherichia coli obtained from patient with complicated intra-abdominal infection assessed as percent susceptible isolates by agar dilution method in presence of beta-lactamase inhibitor Tazobactam.
Experiment [24] deals with Klebsiella aerogenes. In words: Antimicrobial activity against Enterobacter aerogenes obtained from patient with complicated intra-abdominal infection assessed as percent susceptible isolates by agar dilution method in presence of beta-lactamase inhibitor Tazobactam.
The test system of experiment [25] is Acinetobacter sp. In words: Antimicrobial activity against Acinetobacter sp. assessed as percent susceptible isolates by agar dilution method in presence of beta-lactamase inhibitor Tazobactam.
The test system of experiment [26] is Pseudomonas fluorescens. In words: Antimicrobial activity against Pseudomonas fluorescens assessed as percent susceptible isolates by agar dilution method in presence of beta-lactamase inhibitor Tazobactam.
In experiment [27] the test system is Escherichia coli. Kind of experiment: Antimicrobial activity against Escherichia coli obtained from patient with complicated intra-abdominal infection assessed as percent susceptible isolates by agar dilution method in presence of beta-lactamase inhibitor Tazobactam.
Experiment [28] has as its system Escherichia coli. Kind of experiment: Antimicrobial activity against extended-spectrum beta-lactamase-negative Escherichia coli obtained from patient with complicated intra-abdominal infection assessed as percent susceptible isolates by agar dilution method in presence of beta-lactamase inhibitor Tazobactam.
Experiment [29] deals with Stenotrophomonas maltophilia. In words: Antimicrobial activity against Stenotrophomonas maltophilia assessed as percent susceptible isolates by agar dilution method in presence of beta-lactamase inhibitor Tazobactam.
Experiment [30] has as its system Klebsiella oxytoca. In words: Antimicrobial activity against extended-spectrum beta-lactamase-positive Klebsiella oxytoca assessed as percent susceptible isolates be agar dilution method in presence of beta-lactamase inhibitor Tazobactam.
Experiment [31] concerns Serratia marcescens. Kind of experiment: Antimicrobial activity against Serratia marcescens assessed as percent susceptible isolates by agar dilution method in presence of beta-lactamase inhibitor Tazobactam.
Experiment [32] concerns Citrobacter freundii. In words: Antimicrobial activity against Citrobacter freundii obtained from patient with complicated intra-abdominal infection assessed as percent susceptible isolates by agar dilution method in presence of beta-lactamase inhibitor Tazobactam.
Experiment [33] concerns Klebsiella pneumoniae. Kind of experiment: Antimicrobial activity against extended-spectrum beta-lactamase-negative Klebsiella pneumoniae assessed as percent susceptible isolates by agar dilution method in presence of beta-lactamase inhibitor Tazobactam.

Consider `CC1(C)S[C@@H]2[C@H](NC(=O)[C@H](N)c3ccccc3)C(=O)N2[C@H]1C(=O)O` [AMPICILLIN], for which the Activity in experiment [1] came out at 69%; in experiment [2] it was 46%; in [3], 3%; in experiment [4] it was 17%; in [5] it was 61%; in experiment [6], 97%. Besides, the Activity in experiment [7] was found to be 62%; in experiment [8], 46%; in [9], 46%; in experiment [10], 46%; in [11], 83%; in experiment [12], 21%. Moreover, the Activity in experiment [13] came out at 24%; in [14], 57%; in [15], 13%; in experiment [16] it was 64%.
Consider `CCN1CCN(C(=O)N[C@@H](C(=O)N[C@@H]2C(=O)N3[C@@H]2SC(C)(C)[C@@H]3C(=O)O)c2ccccc2)C(=O)C1=O` [PIPERACILLIN], for which the Activity is given as 100% in experiment [17]; 69% in experiment [18]; 83% in [19]; 85% in experiment [20]; 28% in experiment [21]; 23% in experiment [22]. In addition, the Activity in experiment [23] was found to be 62%; in [24], 88%; in experiment [25], 23%; in [26] it was 23%; in [27], 96%; in experiment [28], 98%. For the same compound, the Activity in [29] came out at 23%; in [30], 89%; in [31], 100%; in [32], 72%; in [33] it was 97%.
